Article PMC5161367, “Discovery of Novel Small Molecule Inhibitors of VEGF Expression in Tumor Cells Using a Cell-Based High Throughput Screening Platform” (PLoS ONE, 2016)

Key:
hVEGF = assay: HT1080 xenograft pharmacodynamic model, intratumor hVEGF; type: in vivo, mouse (human tumor xenograft); conditions: twice per day for 7 days
Procedure: (§1) Log phase growing tumor cells (5–10 x 10^6 cells/mouse, depending on the cell line) were implanted subcutaneously in athymic nude mice. When the average tumor size reached the indicated size, mice were randomly divided into groups and administered vehicle (5% DMSO/ 95% PEG-300) or test compounds by oral gavage. Tumor volumes were measured twice per week using digital calipers and body weights once per week. Tumor volume was determined according to the formula: L x (W)^2/2, where L is the longest dimension and W is the shortest dimension.
At the end of experiments, the tumors were excised from mice and homogenized on ice using a Powergen homogenizer fitted with Omni-Tip disposable/reusable probes (both from Fisher Scientific) in Tris-HCl buffer containing a cocktail of proteinase inhibitors. Intra-tumor human VEGF levels, as well as levels of other growth factors or proteins, were subsequently measured using commercially available ELISA kits (R&D Systems). Protein concentrations of the homogenates were determined using the Bradford protein assay (Bio-Rad) and intratumor growth factor levels were normalized to the total protein concentration.
(§2) Among the VEGF UTR-selective compounds identified, PTC-858 is a potent hit with adequate pharmaceutical properties (data not shown). These pharmaceutical properties enabled the testing of this compound in a human xenograft pharmacodynamic model in mice to measure modulation of intratumor VEGF levels. Established human HT1080 fibrosarcoma tumors grown as a xenograft in nude mice were treated with PTC-858 orally at a dose of 200 mg/kg, twice per day for 7 days. […] In addition, tumor growth was reduced by 25% after only 7 days of treatment.

[1] = test system: HT1080 human tumor xenografts; assay: HT1080 human tumor xenograft growth in athymic nude mice; type: in vivo, mouse
Procedure: as §1
as §2, with “These” for “Among the VEGF UTR-selective compounds identified, PTC-858 is a potent hit with adequate pharmaceutical properties (data not shown). These”
Tumors in vehicle-treated mice reached an average volume of 1 cm^3 after 15 days, while tumors in mice treated with 10 mg/kg PTC-510 reached the same volume in about 40 days, a tumor growth delay of 25 days.

[2] = Cytotoxicity, CellTiter-Glo, PBMC; type: cell-based; conditions: human, peripheral blood mononuclear cells (PBMC)
Procedure: The cytotoxicity of compounds was determined in peripheral blood mononuclear cells (PBMCs) and primary human foreskin fibroblasts, both purchased frozen from AllCells, Inc, CA. Cells were incubated with test compound at various concentrations in triplicate for a period of 3 days in 96-well plates. The cytotoxicity or inhibition of cell proliferation was determined using a standard CellTiter-Glo® Luminescent Cell Viability Assay (Promega, Madison, WI) that measures total cellular adenosine triphosphate (ATP) concentration as a function of cell viability. In addition, cytotoxicity assays were also performed in HeLa cells in parallel with VEGF ELISA to ensure that the inhibition of VEGF production in HeLa cells was not due to cytotoxicity.

[3] = test system: VEGF 5'- and 3'-UTR luciferase reporter; assay: VEGF GEMS luciferase reporter (B9 cells, VEGF UTRs) vs control reporter (B12 cells); type: cell-based, human
Procedure: Luciferase assays were conducted using the Bright-Glo assay (Promega, Madison, WI), following the manufacturer’s instructions. The plates were incubated for 5 minutes at room temperature with gentle shaking before determining the level of luciferase activity. For assays done in 96-well plates, luciferase activity was monitored using a Topcount microplate reader (Perkin Elmer, USA). For HTS and assays done in 384-well plates, luciferase activity was determined using a ViewLux microplate reader (Perkin Elmer, USA).
A high throughput screen (HTS) was performed with a stable cell line designated B9 that was generated by transfecting the VEGF GEMS™ vector (Fig 1a) into HEK293 cells. Log phase growing B9 cells were trypsinized and re-suspended in growth medium containing 1x penicillin and streptomycin (Invitrogen) to form a single-cell suspension. Cell counts were determined using a hemocytometer, with cell viability greater than 98% for all assays. B9 cells were seeded (10,000 cells per well) in 384-well plates and incubated with test compound at a final concentration of 7.5 μM in duplicate in a 40 μL reaction. The final concentration of DMSO was 0.5%. A serial dilution (0.078 to 20 μM) of puromycin was included in each plate as positive control for the nonspecific inhibition of translation. After incubation for 20 hours at 37°C, 5% CO2, 20 μL of Bright-Glo substrate (Promega) were added to each well. Plates were incubated for 5 minutes at room temperature with gentle shaking. Firefly luciferase luminescence was measured on the ViewLux (PerkinElmer). Data were loaded into ActivityBase (IDBS) for analysis. The HTS plate configuration is shown in S1 Fig. The threshold for hits was set at mean + 3x SD (standard deviation). Statistical robustness was assessed by Z’-factor, defined as 1-((3 x (SDblank-control + SDDMSO-control)/(Meanblank-control + MeanDMSO-control)), where the blank control represents assay background and the DMSO control represents total signal from the DMSO treated samples.
To address the possibility that the compounds identified in the screen function by modulating general transcription processes rather than targeting processes regulated by the 5’- and/or 3’-UTRs of VEGF mRNA, we generated an additional cell line, designated as B12 that harbors the luciferase reporter flanked with control UTRs from the plasmid pCDNA3.1 vector instead of those from VEGF mRNA. Compounds that reduce luciferase activity in both cell lines are considered to be general inhibitors of transcription or translation. Therefore, those compounds that inhibit luciferase expression in B9 but not in B12 cells act through the 5’- and/or 3’-UTRs of the VEGF transcript. A subset of the compounds selective for the VEGF UTRs was identified.

| SMILES | effect on intratumor VEGF in HT1080 tumors (hVEGF; 50 mg/kg, oral) | time for tumors to reach an average volume of 1 cm^3 ([1]; 10 mg/kg, oral, vehicle 15 days) | tumor growth delay ([1]; 10 mg/kg, oral, vs vehicle) | mice with tumors that remained too small to measure (<50 mm^3) ([1]; 50 mg/kg group, 3/7 mice, on study more than 90 days) | time for tumors to reach 1 cm^3 ([1]; 50 mg/kg, oral, dosing stopped at 50 days) | effect of prolonged treatment on tumor growth ([1]; oral, 10 and 50 mg/kg) | CC50 at 3 days ([2]; read-out: PBMC cytoxtoxicity CC50) | VEGF UTR specificity [3] | change of intratumor human VEGF protein levels vs vehicle (hVEGF; HT1080 xenograft, 200 mg/kg orally) | intratumor hVEGF (hVEGF; HT1080 xenograft, 200 mg/kg, oral, mean +/- SD, n = 10) | tumor growth reduced ([1]; 200 mg/kg orally, twice per day, after 7 days of treatment) | CC50 at 72 hours ([2]; 72 hours, CellTiter-Glo) | selectivity, VEGF reporter (B9) vs control reporter B12 cells ([3]; HEK293 stable luciferase reporter lines) |
| --- | --- | --- | --- | --- | --- | --- | --- | --- | --- | --- | --- | --- | --- |
| COc1ccc(C2c3[nH]c4ccc(Br)cc4c3CC3C(=O)N(C4CCCCC4)C(=S)N32)cc1.O=C(O)C(F)(F)F (stereo not shown) [PTC-510, 9-bromo-2-cyclohexyl-5-(4-methoxyphenyl)-3-thioxo-2,3,5,6,11,11a-hexahydro-1H-imidazo[1’,5’:1,6]pyrido[3,4-b]indol-1-one trifluoroacetate] | selectively inhibited production of intratumor VEGF | about 40 days | 25 days | 43% | > 50 days | reduced tumor growth significantly in a dose-dependent fashion | > 30 µM | yes | – | – | – | – | – |
| Brc1ccc2[nH]c3c(c2c1)CCCC3n1cccc1 (stereo not shown) [PTC-858, 6-bromo-1-(1H-pyrrol-1-yl)-2,3,4,9-tetrahydro-1H-carbazole] | – | – | – | – | – | – | – | – | significant reduction of intratumor human VEGF protein levels | 127.5 ± 108.6 pg/mg total tumor proteins | 25% | > 30 µM | greater than 2 log |
